{"source": "patent US10618869B2", "about": "“Oligo-benzamide compounds and their use” (The Board of Regents of the University of Texas System, priority 2010, dated 2020)", "key": {"[1]": {"system": "LNCaP cells", "experiment": "Uptake of fluorescein analogues of D2 by LNCaP cells", "assay_type": "cell-based", "conditions": "summary statement", "description": "FIGS. 14A-C. Effect of chemical conjugation of Fluorescein to D2 at the amino and carboxy terminus (FIG. 14A) on uptake by LnCaP cells at 4 hours (FIG. 14B) and on DHT-induced proliferation of PCa cells (FIG. 14C).\nIn FIG. 14, two fluorescent analogues of D2 were prepared, one by introducing a fluorescein moiety to the C-terminus of D2 (CF1-D2) and the other by placing it at the N-terminus (CF2-D2)."}, "[2]": {"system": "ARE-luciferase reporter", "experiment": "DHT-induced transcription from minimal ARE-luciferase reporter", "assay_type": "cell-based", "conditions": "LNCaP, CWR22v1 and LAPC4 cell lines", "excerpt": "(§1) FIG. 9. […] This effect of D2 could be rescued by overexpression of AR (bottom left panel) or PELP1 (bottom right panel).\n(§2) At the protein level, D2, but not D1, was able to block DHT-induced expression of PSA protein. Again, the suppresion of DHT-induced transcription from an ARE could be overcome by overexpression of either AR or PELP1 ([…]). Overexpression of PELP1 was able to rescue the D2-mediated suppression of DHT-induced transcription nearly back to baseline."}, "[3]": {"system": "prostate cancer cells", "experiment": "Toxicity in vitro and in vivo", "excerpt": "The peptidomimetics of the present invention are non-toxic under in vitro and in vivo conditions. The development of these peptidomimetics represents a quantum leap in the development of a drug to target AR signaling. […] In addition to improvements in the helical face and presentation of the leucines, the inventors have proven efficacy of this system against prostate cancer cell proliferation both in vitro and in vivo. Thus, in contrast to existing technology, the inventors have developed and tested an active peptidomimetic against prostate cancer and other androgen receptor involved cancers.\nThey have shown that this synthetic peptidomimetic D2 is capable of blocking AR-PELP-1 interaction, nuclear translocation of AR, AR mediated genomic signaling as well as DHT-mediated proliferation of prostate cancer cells in vitro. The IC50 of D2 appears to be around 40 nM. The effect of the D2 peptidomimetic appears to be specific to blocking AR-PELP-1 interaction, as overexpression of AR or PELP-1 may overcome D2-mediated blockade. […] In comparison, administration of either control peptidomimetics or control soluent has no effect on the growth of prostate cancer cells in vitro or in vivo. In addition, the inventors have generated and tested hundreds of variants of D2 and have identified related peptidomimetics with similar or equivalent potency."}, "[4]": {"system": "PCa cells", "experiment": "EGF or LPA-induced proliferation of PCa cells (MTT assay)", "assay_type": "cell-based", "conditions": "peptidomimetic added 2 hours prior", "description": "FIG. 11. […] D2 does block DHT-induced proliferation of prostate cancer cells.\nIn this experiment, cells were plated (2-10×10^3/well) in 96 well plates and subjected to androgen deprivation for 48 hours with phenol-red free RPMI and 1% charcoal stripped fetal bovine serum (CSF). Cells were then treated with either ethanol, EGF or DHT as a positive control for 48 hours. Peptidomimetics were added 2 hours prior to treatment. Cell proliferation was measured using the MTT colorimetric assay."}, "[5]": {"system": "erk", "experiment": "erk phosphorylation after serum starvation (western blot, FIG. 16)", "assay_type": "cell-based", "conditions": "following serum starvation, D1 at higher concentrations (500 nM)", "description": "FIG. 16. Evidence for utility of higher concentrations of D1 in blocking erk phosphorylation: following serum starvation, cells were treated with either D1 or D2 and assessed for their ability to block erk phosphorylation.\nD2, and to a less extent D1, targets a validated target in prostate cancer, has the potential to be an AR-selective modulator, provides a novel mechanism of action, and will likely provide a sustained effect in the context of therapy."}, "[6]": {"system": "PSA-luciferase promoter", "experiment": "DHT-induced transcription from PSA-luciferase promoter", "assay_type": "cell-based", "conditions": "LAPC4 cells", "excerpt": "as §1, §2"}, "[7]": {"system": "erk", "experiment": "DHT-mediated non-genomic activation of erk", "assay_type": "cell-based", "conditions": "FIG. 12"}, "[8]": {"system": "AR-PELP1 interaction", "experiment": "DHT-induced AR-PELP1 co-immunoprecipitation in PCa cells", "assay_type": "cell-based", "excerpt": "FIG. 6. Effect of D1 and D2 on DHT induced AR-PELP1 co-immunoprecipitation in LNCaP cells.\nFIGS. 7A-C. Effect of D1 and D2 on DHT induced AR-PELP1 co-immunoprecipitation in LNCaP cells. (FIG. 7A) Model depicts the proposed role for D2 in disrupting the interaction between AR and NR Box proteins such as Hsp27 and PELP1. (FIG. 7B) Effect of increasing concentration of D2 on complex formation between AR and NR Box proteins such as Hsp27 and PELP1, as shown for immunoprecipitation with AR (top panel) and with PELP1 (bottom panel). Input lysates are shown at the bottom. (FIG. 7C) Rescue of D2-induced suppression of AR-PELP1 complex formation: Following transient transfection with increasing concentrations of AR (left panel) or increasing concentration of PELP1 (right panel), LnCAP cells were treated with 10 nM DHT for 24 hours following preincubation with D2 or control D1. Extracts were immunoprecipitated with AR and immunoblotted with PELP1, AR or importin.\nFIG. 6 provides confirmation that D2 was directed against the LXXLL (SEQ ID NO: 1) motif and was capable of blocking AR and PELP1 interaction in vivo was obtained from coimmunoprecipitation experiments in LnCaP PCa cells.\nD2 was also able to block the DHT- and E2-induced interaction of AR with PELP1 in LAPC4, C4-2, VCAP and CWR22v1 cells. […] The ability of D2 to block AR-PELP1 interaction could be overcome by transient over-expression of PELP1 in a dose-dependent manner."}}, "note": "“Also recorded” adds a separate entry of the source.", "data": [{"smiles": "COC(=O)c1ccc(NC(=O)c2ccc([N+](=O)[O-])c(OCC(C)C)c2)c(OCC(C)C)c1", "note": "[D2]", "values": [{"measurement": "entry into prostate cancer cells", "setting": "[1]", "result": "enters the prostate cancer cells"}, {"measurement": "DHT-induced transcription from minimal ARE-luciferase reporter", "setting": "[2]", "result": "able to block; also recorded: block DHT-Induced gene expression"}, {"measurement": "toxicity", "setting": "[3]", "result": "non-toxic to prostate cancer cells"}, {"measurement": "EGF or LPA-induced proliferation of PCa cells", "setting": "[4]", "result": "no effect; also recorded: does not affect"}, {"measurement": "erk activation / phosphorylation", "setting": "[5]", "result": "blocks at lower concentrations"}, {"measurement": "DHT-induced transcription from PSA-luciferase promoter", "setting": "[6]", "result": "able to block; also recorded: block DHT-Induced gene expression"}, {"measurement": "DHT-mediated non-genomic activation of erk", "setting": "[7]", "result": "no effect; also recorded: does not block"}, {"measurement": "stability of AR or PELP1", "setting": "[8]", "result": "did not adversely affect"}, {"measurement": "DHT- and E2-induced interaction of AR with PELP1", "setting": "[8]; LAPC4, C4-2, VCAP and CWR22v1 cells", "result": "able to block"}, {"measurement": "DHT-induced physical interaction of AR and PELP1", "setting": "[8]; LnCaP cells, preincubation with 100 nM", "result": "blocked"}, {"measurement": "AR-PELP1 interaction, dose dependence", "setting": "[8]; increasing concentration, FIG. 7", "result": "blocked AR-PELP1 interaction in a dose-dependent manner"}]}]}
